According to patent US20260240869A1, “ANTIPSEUDOMONAL FUSIDIC ACID COMPOUNDS” (priority 2022, published 2026):
Values after ≈ are worked out from the molar mass of the structure shown. Where two headings read alike, the source gives them in different places.

Columns and labels:
P. aeruginosa PAO1 [1] = test: MIC, CLSI broth microdilution, P. aeruginosa PAO1; type: cell-based, Pseudomonas aeruginosa; settings: for MIC: Pseudomonas aeruginosa
Procedure: (§1) Antimicrobial Susceptibility Tests. Susceptibility testing was performed in biological triplicate, using the microdilution broth method as outlined by the Clinical and Laboratory Standards Institute. Bacteria were cultured with cation-adjusted Meuller-Hinton broth (Sigma-Aldrich; catalogue number: 90922) or Luria-Bertani (LB) broth (Lennox) in round-bottom 96-well plates (Corning; catalogue number: 3788).

P. aeruginosa PA14 = test: MIC, P. aeruginosa PA14; type: cell-based, Pseudomonas aeruginosa; settings: for MIC: Pseudomonas aeruginosa
Procedure: as §1

P. aeruginosa PA1280 = test: MIC, P. aeruginosa PA1280; type: cell-based, Pseudomonas aeruginosa; settings: for MIC: Pseudomonas aeruginosa
Procedure: as §1

P. aeruginosa PAO1 [2] = test: LC-MS/MS whole-cell accumulation assay, P. aeruginosa PAO1; type: cell-based, Pseudomonas aeruginosa
Procedure: (§2) Accumulation Assay. The accumulation assay was performed in triplicate in batches of ten samples, with each batch containing tetracycline or ciprofloxacin as a positive control. P. aeruginosa PAO1, PAO1 A6, PA14, PA14 A40, and PA1280, and E. coli MG1655 were used in these experiments. For each replicate, 2.5 mL (E. coli) or 5 mL (P. aeruginosa) of an overnight culture was diluted into 250 mL of fresh Luria-Bertani broth (Lennox) or Tryptic Soy Broth (TSB) and grown at 37° C. with shaking to an optical density (OD600) of 0.55-0.60. The bacteria were pelleted at 3220 r.c.f. for 10 min at 4° C., and the supernatant was discarded. The pellets were resuspended in 40 mL of phosphate buffered saline (PBS) and pelleted as before, and the supernatant was discarded. The pellets were resuspended in 8.8 mL of fresh PBS and aliquoted into ten, 1.5 mL Eppendorf tubes (875 μL each). The number of colony-forming units (CFUs) was determined by a calibration curve. The samples were equilibrated at 37° C. with shaking for 5 min; compound was added (final concentration=50 μM), and then the samples were incubated at 37° C. with shaking for either 10 min. These time points were short enough to minimize metabolic and growth changes (no changes in OD600 or CFU count observed). After incubation, 800 μL of the cultures was carefully layered on 700 μL of silicone oil (9:1 AR20/Sigma High Temperature, cooled to −78° C.). Bacteria were pelleted through the oil by centrifuging at 13 000 r.c.f. for 2 min at room temperature (with the supernatant remaining above the oil); the supernatant and oil were then removed by pipetting. To lyse the samples, each pellet was dissolved in […] of water, and then, they were subjected to three (E. coli) or four (P. aeruginosa) freeze-thaw cycles of 3 min in liquid nitrogen followed by 3 min in a water bath at 65° C. P. aeruginosa samples were then treated with 50 µM DNase and RNase and incubated at 37° C. for 15 minutes. The lysates were pelleted at 13 000 r.c.f. for 2 min at room temperature, and the supernatant was collected ([…]). The debris was resuspended in 100 μL of methanol and pelleted as before. The supernatants were removed and combined with the previous supernatants collected. Finally, the remaining debris was removed by centrifuging at 20 000 r.c.f. for 10 min at room temperature. Supernatants were analyzed by LC-MS/MS.
(§3) Samples were analyzed with the 5500 QTRAP LC/MS/MS system (AB Sciex) with a 1200 series HPLC system (Agilent Technologies) including a degasser, an autosampler, and a binary pump. Liquid chromatography separation was performed on an Agilent SB-Aq column (4.6×50 mm, 5 μm) (Agilent Technologies) with mobile phase A (0.1% formic acid in water) and mobile phase B (0.1% formic acid in acetonitrile). The flow rate was 0.3 mL/min. The linear gradient was as follows: 0-3 min, 100% mobile phase A; 10-15 min, 2% mobile phase A; 15.5-21 min, 100% mobile phase A. The autosampler was set at 5° C. The injection volume was 15 μL. Mass spectra were acquired with both positive electrospray ionization at the ion spray voltage of 5500 V and negative electrospray ionization at the ion spray voltage of −4500 V. The source temperature was 450° C. The curtain gas, ion source gas 1, and ion source gas 2 were 33, 50, and 65, respectively. Multiple reaction monitoring was used to quantify the metabolites. Power analysis was not used to determine the number of replicates. Error bars represent the standard error of the mean of three biological replicates. The statistical significance of the accumulation was determined using a two sample Welch's t test (one-tailed test, assuming unequal variance) relative to the negative controls. All compounds evaluated in the biological assays were >95% pure.
MBN assay. Assays measuring permeabilization by polymyxin B nonapeptide (PMBN) were performed as above, with the addition of 8 μg/mL PMBN immediately before the compound of interest was added.

E. coli MG1655 = test: MIC, E. coli MG1655; type: cell-based; settings: Escherichia coli, MG1655; Table 9; read-out: MIC E. coli MG1655
Procedure: as §1

S. aureus ATCC 29213 = test: MIC, S. aureus ATCC 29213; type: cell-based; settings: Staphylococcus aureus, ATCC29213; Table 9; read-out: MIC S. aureus ATCC 29213
Procedure: as §1

WT PA = settings: retrospective literature analysis (Table 6); cited from earlier work
PA efflux KO = settings: retrospective literature analysis (Table 6); cited from earlier work
WT EC = settings: retrospective literature analysis (Table 6); cited from earlier work
tolC EC = settings: retrospective literature analysis (Table 6); cited from earlier work
P. aeruginosa PAO1 [3] = test: NPN outer membrane permeability assay; type: cell-based, Pseudomonas aeruginosa; settings: treatment for ten minutes
Description: Further, the fluorescent probe N-phenylnapthylamine (NPN) was used to assess outer membrane permeability changes upon treatment with FA, gentamicin, and FA prodrug. NPN is membrane impermeable and is only weakly fluorescent in aqueous solutions. Upon entry to the cell and interacting with phospholipids, significant fluorescence is observed. […] This residual membrane depolarizing antibacterial activity can be observed in the FA polyamine (FIG. 4a) and the diacylated compound (Table 9).

P. aeruginosa PAΔ6 [4] = test: MIC, efflux pump knockout strain PAΔ6; type: cell-based, Pseudomonas aeruginosa
Procedure: as §1

P. aeruginosa PAΔ6 [5] = test: LC-MS/MS whole-cell accumulation assay, PAΔ6; type: cell-based, Pseudomonas aeruginosa; settings: FIG. 1c
Procedure: as §2, §3

[6] = WT P. aeruginosa PAO1, MH broth (Table 1), read-out: PAO1 MIC
[7] = PA14, MH broth (Table 4), read-out: PA14 MIC
[8] = PA1280, MH broth (Table 4), read-out: PA1280 MIC

## CC(=O)NC[C@H]1CN(c2ccc(N3CCOCC3)c(F)c2)C(=O)O1 [Linezolid]
P. aeruginosa PAO1 [1]; MH broth (Table 4)
  PAO1 MIC: >512 µg/mL
P. aeruginosa PAO1 [1]; [6]
  MIC: > 512 µg/mL
P. aeruginosa PA14; [7]
  MIC: > 512 µg/mL
P. aeruginosa PA1280; [8]
  MIC: > 512 µg/mL

## CO[C@@H]1[C@@H](OC(N)=O)[C@@H](O)[C@H](Oc2ccc3c(O)c(NC(=O)c4ccc(O)c(CC=C(C)C)c4)c(=O)oc3c2C)OC1(C)C [Novobiocin]
P. aeruginosa PAO1 [1]; MH broth (Table 4)
  PAO1 MIC: >512 µg/mL
P. aeruginosa PAO1 [1]; [6]
  MIC: > 512 µg/mL
P. aeruginosa PAO1 [1]; co-treatment of 8 μg/mL of PMBN, MH broth
  PAO1 + PMBN MIC: 1 µg/mL
P. aeruginosa PA14; [7]
  MIC: > 512 µg/mL
P. aeruginosa PA1280; [8]
  MIC: > 512 µg/mL
P. aeruginosa PAO1 [2]; treatment with PMBN, FIG. 1b
  change of accumulation upon membrane permeabilization: significant increase in accumulation

## CC(=O)O[C@H]1C[C@@]2(C)[C@@H](C[C@@H](OC(C)=O)[C@H]3[C@@]4(C)CC[C@@H](OC(C)=O)[C@@H](C)[C@@H]4CC[C@@]32C)/C1=C(\CCC=C(C)C)C(=O)O [FA diacetate]
E. coli MG1655
  MIC: > 512 µg/mL
S. aureus ATCC 29213
  MIC: 64 µg/mL

## Cc1c(N2CC[C@@H]([C@H](C)N)C2)c(F)cc2c(CN)cc(=O)n(C3CC3)c12 [Compound 10]
WT PA
  WT PA MIC: 2 µg/mL
PA efflux KO
  PA efflux KO MIC: 0.5 µg/mL
WT EC
  WT EC MIC: 1 µg/mL
tolC EC
  tolC EC MIC: 0.06 µg/mL

## Gentamicin
P. aeruginosa PAO1 [1]; 5 mM MgCl2/CAMH versus CAMH (Table 10)
  Fold change (MIC): 32X
P. aeruginosa PAO1 [1]; CAMH (Table 10)
  MIC P. aeruginosa PAO1, CAMH: 0.25 µg/mL
P. aeruginosa PAO1 [1]; P. aeruginosa PAO1
  shift in MIC on co-treatment with 5 mM MgCl2: 32 -fold
P. aeruginosa PAO1 [1]; co-treatment 5 mM MgCl2 in CAMH (Table 10)
  MIC P. aeruginosa PAO1, 5 mM MgCl2/CAMH: 8
P. aeruginosa PAO1 [3]
  NPN fluorescence (outer membrane permeability): dose-dependent increase

## CC(=O)O[C@H]1C[C@@]2(C)[C@@H](C[C@@H](OC(C)=O)[C@H]3[C@@]4(C)CC[C@@H](OC(C)=O)[C@@H](C)[C@@H]4CC[C@@]32C)/C1=C(\CCC=C(C)C)C(=O)O/N=C(\N)CNCCCNCCCNCCCN [FA prodrug-diacetate]
P. aeruginosa PAO1 [1]; PAO1, Table 9, read-out: MIC P. aeruginosa PAO1
  MIC: 32 µg/mL (≈ 38 µM)
E. coli MG1655
  MIC: 16 µg/mL (≈ 19 µM)
S. aureus ATCC 29213
  MIC: 16 µg/mL (≈ 19 µM)

## CN(C)c1cc(NC(=O)CNC(C)(C)C)c(O)c2c1C[C@H]1C[C@H]3[C@H](N(C)C)C(O)=C(C(N)=O)C(=O)[C@@]3(O)C(O)=C1C2=O [Tigecycline]
P. aeruginosa PAO1 [1]; MH broth (Table 4)
  PAO1 MIC: 1 µg/mL
P. aeruginosa PAO1 [1]; [6]
  MIC: 1 µg/mL (≈ 1.71 µM)
P. aeruginosa PA14; [7]
  MIC: 2 µg/mL (≈ 3.41 µM)
P. aeruginosa PA1280; [8]
  MIC: 16 µg/mL (≈ 27.3 µM)
P. aeruginosa PAO1 [2]; FIG. 1a
  accumulation relative to tetracycline: accumulates to a higher extent than tetracycline
WT PA
  WT PA MIC: 1 µg/mL
PA efflux KO
  PA efflux KO MIC: 0.125 µg/mL
WT EC
  WT EC MIC: 0.5 µg/mL
tolC EC
  tolC EC MIC: 0.125 µg/mL

## CN[C@H](CC(C)C)C(=O)N[C@H]1C(=O)N[C@@H](CC(N)=O)C(=O)N[C@H]2C(=O)N[C@H]3C(=O)N[C@H](C(=O)N[C@H](C(=O)O)c4cc(O)cc(O)c4-c4cc3ccc4O)[C@H](O)c3ccc(c(Cl)c3)Oc3cc2cc(c3O[C@@H]2O[C@H](CO)[C@@H](O)[C@H](O)[C@H]2O[C@H]2C[C@](C)(N)[C@H](O)[C@H](C)O2)Oc2ccc(cc2Cl)[C@H]1O [Vancomycin]
P. aeruginosa PAO1 [1]; MH broth (Table 4)
  PAO1 MIC: >512 µg/mL
P. aeruginosa PAO1 [1]; PAO1, read-out: PAO1 MIC
  MIC: > 512 µg/mL
P. aeruginosa PAO1 [1]; PAO1, read-out: WT MIC
  MIC: > 512 µg/mL
P. aeruginosa PAΔ6 [4]; MIC ratio WT PAO1 / PAΔ6 (Table 2)
  Fold change: 1
P. aeruginosa PAΔ6 [4]; efflux pump KO strain, MH or LB broth (Table 2)
  PAΔ6 MIC: >512 µg/mL
P. aeruginosa PA14; PA14, read-out: PA14 MIC
  MIC: > 512 µg/mL
P. aeruginosa PA1280; PA1280, read-out: PA1280 MIC
  MIC: > 512 µg/mL
P. aeruginosa PAΔ6 [5]
  change of accumulation in efflux pump knockout PAΔ6 versus WT PAO1: no change in accumulation

## CN(C)[C@@H]1C(=O)C(C(N)=O)=C(O)[C@@]2(O)C(=O)C3=C(O)c4c(O)cccc4[C@@](C)(O)[C@H]3C[C@@H]12 [Tetracycline]
P. aeruginosa PAO1 [1]; MH broth (Table 4)
  PAO1 MIC: 16 µg/mL
P. aeruginosa PAO1 [1]; WT P. aeruginosa PAO1, MH broth (Table 1)
  PAO1 MIC: 16 µg/mL
P. aeruginosa PAO1 [1]; WT P. aeruginosa PAO1, MH or LB broth (Table 7)
  WT MIC: 16 µg/mL
P. aeruginosa PAΔ6 [4]; MH or LB broth (Table 7)
  PAΔ6 MIC: 0.25 µg/mL
P. aeruginosa PAΔ6 [4]; WT MIC / PAΔ6 MIC (Table 7)
  Fold change (MIC): 64
P. aeruginosa PA14; MH broth (Table 4)
  PA14 MIC: 8 µg/mL
P. aeruginosa PA1280; MH broth (Table 4)
  PA1280 MIC: 32 µg/mL
P. aeruginosa PAO1 [2]; WT PAO1, ± s.e.m. (Table 7)
  WT Accum: 452 ± 5 nmol/10^12 CFUs
WT PA
  WT PA MIC: 16 µg/mL
PA efflux KO
  PA efflux KO MIC: 0.25 µg/mL
WT EC
  WT EC MIC: 1 µg/mL
tolC EC
  tolC EC MIC: 0.25 µg/mL

## Cc1c(N2CC[C@@H]([C@H](C)N)C2)c(F)cc2c(CO)cc(=O)n(C3CC3)c12 [Compound 11]
WT PA
  WT PA MIC: 16 µg/mL
PA efflux KO
  PA efflux KO MIC: 4 µg/mL
WT EC
  WT EC MIC: 16 µg/mL
tolC EC
  tolC EC MIC: 0.25 µg/mL

## C[C@@H](O)[C@H]1C(=O)N2C(C(=O)O)=C(S[C@@H]3CN[C@H](C(=O)N(C)C)C3)[C@H](C)[C@H]12 [Meropenem]
P. aeruginosa PAO1 [1]; MH broth (Table 4)
  PAO1 MIC: 0.25 µg/mL
P. aeruginosa PAO1 [1]; [6]
  MIC: 0.25 µg/mL (≈ 0.652 µM)
P. aeruginosa PA14; [7]
  MIC: 0.5 µg/mL (≈ 1.3 µM)
P. aeruginosa PA1280; [8]
  MIC: 0.5 µg/mL (≈ 1.3 µM)
P. aeruginosa PAO1 [2]; FIG. 1a / FIG. 5
  accumulation in PAO1 (in words): minimal accumulation
